Values joined by “and” are separate entries in the source; they are usually repeats but may differ in a detail not shown here. Identical values can stand only once.
What was measured:
AcrAB efflux system = target: T1, AcrAB efflux system (Escherichia coli, UniProt P31224); assay: Monatin efflux per dry cell weight after induction of the AcrAB efflux pump with sodium decanoate; type: cell-based
T1 construct: endogenous in cells; host or cells: E. coli BL21 (DE3) carrying aspC/proA on pET32
Procedure: The microbial strain used for the experiment was E. coli BL21 (DE3) : : aspC/proA/pET32 (WO 03091396). The symbol : :, as is known in the art, stands for “transformed.” Example 12 provides a non-limiting exemplary method for transforming a microorganism. For an inoculum, the E. coli strains were grown overnight at 37° C. and 250 rpm in Luria-Bertani (“LB”) medium with 100 μg/mL ampicillin. For the experimental treatments, Trp-1+ glucose medium, a minimal medium that has been used for increased production of tryptophan in E. coli cells (Zeman et al. Folia Microbiol. 35:200-204, (1990)), was prepared as follows. To 800 mL nanopure water the following reagents were added: 2 g (NH4)2SO4 and 13.6 g KH2PO4. The pH was adjusted to 7.0, the volume was increased to 948 mL, and the medium was autoclaved. Following sterilization, 0.2 g MgSO4.7H2O, 0.01 g CaCl2.2H2O, and 0.5 mg FeSO4.7H2O were added to the medium in a 1.8 mL volume followed by addition of 0.2 mL of Neidhardt's micronutrient solution. Neidhardt, F. C., et al., “Culture medium for Enterobacteria,” J. Bacteriol. 119:736-746 (1974). Neidhardt's medium includes (per liter): 0.18 g (NH4)6(MO7)24.4H2O, 1.24 g H3BO3, 0.36 g CoCl2.6H2O, 0.12 g CuSO4 (anhydrous), 0.8 g MnCl2.4H2O, and 0.14 g ZnSO4.7H2O. A 50% glucose solution was prepared separately and sterile-filtered. Forty mL of glucose solution and 10 mL of 1 M 3-Morpholinopropanesulfonic acid (“MOPS”) buffer were added to the base medium (950 mL) for a 1 L final volume. […] Flasks were incubated at 37° C. with agitation at 250 rpm up to induction. […] 0.5 mM pyridoxine hydrochloride, and 0.2 mL of Balch's vitamins (Balch, W. E., et al., “Methanogens: reevaluation of a unique biological group,” Microbiol. Rev. 43:260-296, (1979)) were added at induction and the incubation temperature was lowered to 30° C. following induction. […] Some treatments included 2.5 mM sodium decanoate addition at 3.5 hours following induction. Samples for monatin analysis and dry cell weight determination were taken at 24 and 30 hours. Monatin analysis was done as described in Example 13.
Analyses of mixtures for monatin and tryptophan derived from in vitro or in vivo biochemical reactions were performed using a Waters/Micromass liquid chromatography-tandem mass spectrometry (“LC/MS/MS”) instrument including a Waters 2795 liquid chromatograph with a Waters 996 Photo-Diode Array (PDA) absorbance monitor placed in series between the chromatograph and a Micromass Quattro Ultima triple quadrupole mass spectrometer. LC separations were made using an Xterra MS C8 reversed-phase chromatography column, 2.1 mm×250 mm at 40° C. The LC mobile phase consisted of A) water containing 0.05% (v/v) trifluoroacetic acid and B) methanol containing 0.05% (v/v) trifluoroacetic acid.
The gradient elution was linear from 5% B to 35% B, 0-4 min, linear from 35% B to 60% B, 4-6.5 min, linear from 60% B to 90% B, 6.5-7 min, isocratic at 90% B 7-11 min, linear from 90% B to 95% B, 11-12 min, linear from 95% B to 5% B, 12-13 min, with a 5 min re-equilibration period between runs. The flow rate was 0.25 mL/min, and PDA absorbance was monitored from 200 nm to 400 nm. All parameters of the ESI-MS were optimized and selected based on generation of protonated molecular ions ([M+H]^+) of the analytes of interest, and production of characteristic fragment ions. […]

[1] = tested on: E. coli MG1655 ΔAcrAB 6-16::aspCproAproNde; assay: AcrAB k.o. validation: growth (OD 600 nm) with novobiocin / sodium decanoate, knockout strain; type: cell-based, Escherichia coli; settings: sodium decanoate 2.5 mM; novobiocin 0 ppm
Procedure: Single chloramphenicol-resistant colonies were purified by restreaking on appropriate selective media and single colonies were tested by PCR as previously described for the BW25113 knockout strains, to verify the presence of the emrB and acrAB knockouts. The effects of the emrB and acrAB knockouts on the EmrAB and AcrAB transporter systems respectively were determined by assessing the phenotype of the transport mutants using appropriate antibiotics and comparison to wild type control microorganisms as shown in Table 3.1 and Table 3.2 below.

[2] = 2.5 mM Na decanoate, E. coli BL21 (DE3)::aspC/proA/pET32, single flasks

T1 sequence (P31224 whole entry): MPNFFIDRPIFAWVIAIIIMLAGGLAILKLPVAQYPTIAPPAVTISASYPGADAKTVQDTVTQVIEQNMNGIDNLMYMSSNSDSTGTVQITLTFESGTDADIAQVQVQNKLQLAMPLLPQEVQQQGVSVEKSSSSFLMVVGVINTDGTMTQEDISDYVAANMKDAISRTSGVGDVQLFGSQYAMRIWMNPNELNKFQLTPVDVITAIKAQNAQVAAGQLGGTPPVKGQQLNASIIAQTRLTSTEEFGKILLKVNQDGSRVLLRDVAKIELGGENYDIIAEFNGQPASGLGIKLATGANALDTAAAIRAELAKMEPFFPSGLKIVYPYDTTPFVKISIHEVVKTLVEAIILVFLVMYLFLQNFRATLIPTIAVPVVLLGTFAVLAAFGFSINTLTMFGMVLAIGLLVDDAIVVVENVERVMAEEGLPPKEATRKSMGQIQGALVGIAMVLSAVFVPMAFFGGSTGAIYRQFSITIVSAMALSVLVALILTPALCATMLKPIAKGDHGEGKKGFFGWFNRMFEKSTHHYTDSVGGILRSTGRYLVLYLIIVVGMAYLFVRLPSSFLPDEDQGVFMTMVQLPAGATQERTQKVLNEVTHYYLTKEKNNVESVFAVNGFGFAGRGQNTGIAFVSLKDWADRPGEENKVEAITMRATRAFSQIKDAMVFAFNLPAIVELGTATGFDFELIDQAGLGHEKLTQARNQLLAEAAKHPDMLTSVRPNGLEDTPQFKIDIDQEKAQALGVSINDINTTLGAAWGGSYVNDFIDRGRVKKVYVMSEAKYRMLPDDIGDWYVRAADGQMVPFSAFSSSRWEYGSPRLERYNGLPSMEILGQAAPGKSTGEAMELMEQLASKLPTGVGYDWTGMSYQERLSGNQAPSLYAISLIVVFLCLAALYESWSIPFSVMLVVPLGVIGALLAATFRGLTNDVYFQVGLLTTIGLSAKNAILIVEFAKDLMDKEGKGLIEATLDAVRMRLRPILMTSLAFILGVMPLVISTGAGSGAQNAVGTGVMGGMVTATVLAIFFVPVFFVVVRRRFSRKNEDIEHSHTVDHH
T1 sequence (P02930 23-493, further chain): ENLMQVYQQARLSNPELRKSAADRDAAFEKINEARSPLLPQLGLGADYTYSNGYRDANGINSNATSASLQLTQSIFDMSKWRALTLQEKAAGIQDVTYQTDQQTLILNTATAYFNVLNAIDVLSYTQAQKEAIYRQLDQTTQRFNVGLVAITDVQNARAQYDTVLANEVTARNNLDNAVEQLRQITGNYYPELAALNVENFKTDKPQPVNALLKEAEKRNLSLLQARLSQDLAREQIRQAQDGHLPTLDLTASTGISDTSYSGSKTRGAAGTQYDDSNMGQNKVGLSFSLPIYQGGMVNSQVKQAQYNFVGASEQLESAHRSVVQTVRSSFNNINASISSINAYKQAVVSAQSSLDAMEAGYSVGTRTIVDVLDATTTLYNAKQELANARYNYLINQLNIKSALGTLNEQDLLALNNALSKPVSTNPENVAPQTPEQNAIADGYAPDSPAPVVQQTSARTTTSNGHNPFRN
T1 sequence (P0AE06 25-397, further chain): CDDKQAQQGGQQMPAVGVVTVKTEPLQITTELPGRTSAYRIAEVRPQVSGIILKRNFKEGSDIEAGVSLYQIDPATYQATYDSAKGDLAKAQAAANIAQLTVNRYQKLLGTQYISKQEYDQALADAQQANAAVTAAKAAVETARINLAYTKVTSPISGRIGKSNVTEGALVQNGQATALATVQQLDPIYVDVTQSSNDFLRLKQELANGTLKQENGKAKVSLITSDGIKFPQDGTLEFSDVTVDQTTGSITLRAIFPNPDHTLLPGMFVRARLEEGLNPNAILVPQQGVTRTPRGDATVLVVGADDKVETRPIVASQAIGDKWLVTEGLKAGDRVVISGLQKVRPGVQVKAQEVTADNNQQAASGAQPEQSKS

CCCCCCCCCC(=O)[O-].[Na+] [sodium decanoate]
Monatin/dcw at run hour 24 (AcrAB efflux system; [2]): 14.7 mg monatin/g dcw and 12.0 mg monatin/g dcw and 17.0 mg monatin/g dcw
Monatin/dcw at run hour 30 (AcrAB efflux system; [2]): 14.3 mg monatin/g dcw and 13.8 mg monatin/g dcw and 17.4 mg monatin/g dcw
Average monatin/dcw at run hour 24 (AcrAB efflux system; 2.5 mM Na decanoate, n = 3): 14.6 mg monatin/g dcw
Average monatin/dcw at run hour 30 (AcrAB efflux system; 2.5 mM Na decanoate, n = 3): 15.2 mg monatin/g dcw
increase in monatin secreted/dry cell weight (AcrAB efflux system; 2.5 mM sodium decanoate vs no decanoate): Greater than nine fold increase
OD 600 nm at 19 hours [1]: 0.885
